Reference: ChEMBL document CHEMBL1125207, “Monoterpenic fragment analogues of aplasmomycin as potential antimalarial” (1991)

What was measured:
Assay type in all cases: functional
Plasmodium berghei [1] = assay: In vivo antimalarial activity against Plasmodium berghei in mice (Mus musculus) at 80 mg/kg dose as mean survival time
Plasmodium berghei [2] = assay: In vivo antimalarial activity against Plasmodium berghei in mice (Mus musculus) at 20 mg/kg dose as mean survival time
Plasmodium berghei [3] = assay: In vivo antimalarial activity against Plasmodium berghei in mice (Mus musculus) at 160 mg/kg dose as mean survival time
Plasmodium berghei [4] = assay: In vivo antimalarial activity against Plasmodium berghei in mice (Mus musculus) at 40 mg/kg dose as mean survival time
Plasmodium berghei [5] = assay: In vivo antimalarial activity against Plasmodium berghei in mice (Mus musculus) at 160 mg/kg dose as mean survival time of mice (Mus musculus) after 60 days
Plasmodium berghei [6] = assay: In vivo antimalarial activity against Plasmodium berghei in mice (Mus musculus) at 20 mg/kg as mean survival time
Plasmodium berghei [7] = assay: In vivo antimalarial activity against Plasmodium berghei in mice (Mus musculus) at 40 mg/kg dose as mean survival time after 60 days

Structure (SMILES)	Mean survival time (Plasmodium berghei [1]) [days]	Mean survival time (Plasmodium berghei [2]) [days]	Mean survival time (Plasmodium berghei [3]) [days]	Mean survival time (Plasmodium berghei [4]) [days]	Mean survival time (Plasmodium berghei [5]) [days]	Mean survival time (Plasmodium berghei [6]) [days]	Mean survival time (Plasmodium berghei [7]) [days]
CCOC(=O)/C=C/C(C)CCC=C(C)C (stereo not drawn)	7.2	5.4	8	6	–	–	–
CCOC(=O)/C=C/C=C(\C)CCC1OC1(C)C (stereo not drawn)	9.2	7.8	12.6	8.6	30.4	–	–
CCOC(=O)/C=C/C=C(C)C	7.4	5.4	8.8	6	–	–	–
C[C@@H]1CC[C@@H]([C@@H](C)CO)[C@H](O)C1	7	–	8.2	6.2	–	5.4	–
CCOC(=O)/C=C/CC(C)CCC=C(C)C (stereo not drawn)	10.4	6	12.4	8.2	29.6	–	–
C[C@@H]1CC[C@H]2[C@@H](C)C(=O)O[C@@H]3O[C@@]4(C)CC[C@@H]1[C@]32OO4 [ARTEMISININ]	–	10.8	–	–	–	–	30.6
CCOC(=O)C(O)C1OC(C(C)(C)O)CCC1C (stereo not drawn)	8.4	–	11.4	7.2	–	6.4	–
C[C@@H]1CC[C@H]2[C@@H](C)CO[B-]3(OC[C@H](C)[C@@H]4CC[C@@H](C)C[C@H]4O3)O[C@@H]2C1.[Na+] (stereo partly drawn)	10.8	9	12.6	9.6	28.6	–	–
